Assay results taken from patent US12186304B2, “Method for treating cancer by combination of IAP inhibitor and modulator of immune checkpoint molecule” (ASCENTAGE PHARMA (SUZHOU) CO., LTD., priority 2018, dated 2025).

Columns and labels:
[1] = Phase I study (NCT03386526): safety and tolerability
Protocol: The Phase I dose escalation study included two parts.
Pembrolizumab was administered 200 mg IV on day 1 of a 21-day-cycle, until disease progression or untolerated toxicity.
The inclusion criteria for the Phase I study are: Age≥18 years; ECOG PS: 0-1;
Adequate hematologic, renal and liver functions; Advanced or metastatic solid tumor patients must be refractory to or intolerant of existing therapy(ies) known to provide clinical benefit for their condition.

spleen cells = assay: Activation of spleen cells of healthy C57BL/6 mice in vivo; details: 0.05, 0.2 and 0.8 mg/kg i.p. qd x 7 doses
Protocol: Next, we intraperitoneally administered different dosages of APG-1387 to healthy C57BL/6 mice every day. Each group has 3 mice. After 7 days of continuous administration, the spleen was taken to obtain a single cell suspension. NK, macrophage, dendritic cells and T cells were analyzed by flow cytometry to obtain the proportion of these subsets, thus evaluate the effect of APG-1387 on each immune cell subpopulation.

## CN[C@@H](C)C(=O)N[C@H]1CN(S(=O)(=O)c2cccc(S(=O)(=O)N3CC[C@H]4CC[C@@H](C(=O)NC(c5ccccc5)c5ccccc5)N4C(=O)[C@@H](NC(=O)[C@H](C)NC)C3)c2)CC[C@H]2CC[C@@H](C(=O)NC(c3ccccc3)c3ccccc3)N2C1=O [APG-1387]
[1]; 60 mg monotherapy
  G3 above TRAEs: G3 blood bilirubin increased: one
  G3 above TRAEs: lipase increased: one
[1]; APG-1387 20 mg
  # of pts discontinued treatment: Adverse Event: 0
  # of pts discontinued treatment: Clinical progression: 0
  # of pts discontinued treatment: Disease progression: 2
  # of pts discontinued treatment: Lack of efficacy: 1
  TRAEs (all Grades): Aspartate aminotransferase increased, patients: 0
  TRAEs (all Grades): Bell's palsy, patients: 0
  TRAEs (all Grades): Blood bilirubin increased, patients: 0
  TRAEs (all Grades): Decreased appetite, patients: 0
  TRAEs (all Grades): Dehydration, patients: 0
  TRAEs (all Grades): Diarrhoea, patients: 0
  TRAEs (all Grades): Dyspepsia, patients: 0
  TRAEs (all Grades): Eructation, patients: 0
  TRAEs (all Grades): Fatigue, patients: 0
  TRAEs (all Grades): Headache, patients: 0
  TRAEs (all Grades): Lipase increased, patients: 0
  TRAEs (all Grades): Myalgia, patients: 0
  TRAEs (all Grades): Nausea, patients: 0
  TRAEs (all Grades): Peripheral sensory neuropathy, patients: 0
  TRAEs (all Grades): Phlebitis, % of patients: (33.3%)
  TRAEs (all Grades): Phlebitis, patients: 1
  TRAEs (all Grades): Pneumonitis, patients: 0
  TRAEs (all Grades): Pruritus, % of patients: (33.3%)
  TRAEs (all Grades): Pruritus, patients: 1
  TRAEs (all Grades): Rash maculo-papular, % of patients: (33.3%)
  TRAEs (all Grades): Rash maculo-papular, patients: 1
  TRAEs (all Grades): Tumor pain, patients: 0
[1]; APG-1387 30 mg
  # of pts discontinued treatment: Adverse Event: 0
  # of pts discontinued treatment: Clinical progression: 0
  # of pts discontinued treatment: Disease progression: 3
  # of pts discontinued treatment: Lack of efficacy: 0
  TRAEs (all Grades): Aspartate aminotransferase increased, patients: 0
  TRAEs (all Grades): Bell's palsy, patients: 0
  TRAEs (all Grades): Blood bilirubin increased, patients: 0
  TRAEs (all Grades): Decreased appetite, patients: 0
  TRAEs (all Grades): Dehydration, patients: 0
  TRAEs (all Grades): Diarrhoea, % of patients: (33.3%)
  TRAEs (all Grades): Diarrhoea, patients: 1
  TRAEs (all Grades): Dyspepsia, patients: 0
  TRAEs (all Grades): Eructation, patients: 0
  TRAEs (all Grades): Fatigue, patients: 0
  TRAEs (all Grades): Headache, % of patients: (33.3%)
  TRAEs (all Grades): Headache, patients: 1
  TRAEs (all Grades): Lipase increased, patients: 0
  TRAEs (all Grades): Myalgia, patients: 0
  TRAEs (all Grades): Nausea, % of patients: (33.3%)
  TRAEs (all Grades): Nausea, patients: 1
  TRAEs (all Grades): Peripheral sensory neuropathy, patients: 0
  TRAEs (all Grades): Phlebitis, patients: 0
  TRAEs (all Grades): Pneumonitis, patients: 0
  TRAEs (all Grades): Pruritus, patients: 0
  TRAEs (all Grades): Rash maculo-papular, patients: 0
  TRAEs (all Grades): Tumor pain, patients: 0
[1]; APG-1387 45 mg
  # of pts discontinued treatment: Adverse Event: 1
  # of pts discontinued treatment: Clinical progression: 1
  # of pts discontinued treatment: Disease progression: 8
  # of pts discontinued treatment: Lack of efficacy: 1
  TRAEs (all Grades): Aspartate aminotransferase increased, % of patients: (7.7%)
  TRAEs (all Grades): Aspartate aminotransferase increased, patients: 1
  TRAEs (all Grades): Bell's palsy, % of patients: (7.7%)
  TRAEs (all Grades): Bell's palsy, patients: 1
  TRAEs (all Grades): Blood bilirubin increased, patients: 0
  TRAEs (all Grades): Decreased appetite, % of patients: (15.4%)
  TRAEs (all Grades): Decreased appetite, patients: 2
  TRAEs (all Grades): Dehydration, % of patients: (7.7%)
  TRAEs (all Grades): Dehydration, patients: 1
  TRAEs (all Grades): Diarrhoea, patients: 0
  TRAEs (all Grades): Dyspepsia, % of patients: (7.7%)
  TRAEs (all Grades): Dyspepsia, patients: 1
  TRAEs (all Grades): Eructation, patients: 0
  TRAEs (all Grades): Fatigue, % of patients: (23.1%)
  TRAEs (all Grades): Fatigue, patients: 3
  TRAEs (all Grades): Headache, patients: 0
  TRAEs (all Grades): Lipase increased, patients: 0
  TRAEs (all Grades): Myalgia, % of patients: (7.7%)
  TRAEs (all Grades): Myalgia, patients: 1
  TRAEs (all Grades): Nausea, % of patients: (7.7%)
  TRAEs (all Grades): Nausea, patients: 1
  TRAEs (all Grades): Peripheral sensory neuropathy, % of patients: (7.7%)
  TRAEs (all Grades): Peripheral sensory neuropathy, patients: 1
  TRAEs (all Grades): Phlebitis, patients: 0
  TRAEs (all Grades): Pneumonitis, patients: 0
  TRAEs (all Grades): Pruritus, patients: 0
  TRAEs (all Grades): Rash maculo-papular, patients: 0
  TRAEs (all Grades): Tumor pain, patients: 0
[1]; APG-1387 60 mg
  # of pts discontinued treatment: Adverse Event: 2
  # of pts discontinued treatment: Clinical progression: 1
  # of pts discontinued treatment: Disease progression: 1
  # of pts discontinued treatment: Lack of efficacy: 0
  TRAEs (all Grades): Aspartate aminotransferase increased, patients: 0
  TRAEs (all Grades): Bell's palsy, % of patients: (20.0%)
  TRAEs (all Grades): Bell's palsy, patients: 1
  TRAEs (all Grades): Blood bilirubin increased, % of patients: (20.0%)
  TRAEs (all Grades): Blood bilirubin increased, patients: 1
  TRAEs (all Grades): Decreased appetite, patients: 0
  TRAEs (all Grades): Dehydration, patients: 0
  TRAEs (all Grades): Diarrhoea, patients: 0
  TRAEs (all Grades): Dyspepsia, patients: 0
  TRAEs (all Grades): Eructation, patients: 0
  TRAEs (all Grades): Fatigue, patients: 0
  TRAEs (all Grades): Headache, % of patients: (20.0%)
  TRAEs (all Grades): Headache, patients: 1
  TRAEs (all Grades): Lipase increased, % of patients: (20.0%)
  TRAEs (all Grades): Lipase increased, patients: 1
  TRAEs (all Grades): Myalgia, patients: 0
  TRAEs (all Grades): Nausea, patients: 0
  TRAEs (all Grades): Peripheral sensory neuropathy, patients: 0
  TRAEs (all Grades): Phlebitis, patients: 0
  TRAEs (all Grades): Pneumonitis, % of patients: (20.0%)
  TRAEs (all Grades): Pneumonitis, patients: 1
  TRAEs (all Grades): Pruritus, % of patients: (20.0%)
  TRAEs (all Grades): Pruritus, patients: 1
  TRAEs (all Grades): Rash maculo-papular, % of patients: (20.0%)
  TRAEs (all Grades): Rash maculo-papular, patients: 1
  TRAEs (all Grades): Tumor pain, patients: 0
[1]; IV once weekly in a 21-day-cycle
  MTD of APG-1387 monotherapy: 45 mg
[1]; Overall
  # of pts discontinued treatment: Adverse Event: 3
  # of pts discontinued treatment: Clinical progression: 2
  # of pts discontinued treatment: Disease progression: 14
  # of pts discontinued treatment: Lack of efficacy: 2
  TRAEs (all Grades): Aspartate aminotransferase increased, % of patients: (4.2%)
  TRAEs (all Grades): Aspartate aminotransferase increased, patients: 1
  TRAEs (all Grades): Bell's palsy, % of patients: (8.4%)
  TRAEs (all Grades): Bell's palsy, patients: 2
  TRAEs (all Grades): Blood bilirubin increased, % of patients: (4.2%)
  TRAEs (all Grades): Blood bilirubin increased, patients: 1
  TRAEs (all Grades): Decreased appetite, % of patients: (8.3%)
  TRAEs (all Grades): Decreased appetite, patients: 2
  TRAEs (all Grades): Dehydration, % of patients: (4.2%)
  TRAEs (all Grades): Dehydration, patients: 1
  TRAEs (all Grades): Diarrhoea, % of patients: (4.2%)
  TRAEs (all Grades): Diarrhoea, patients: 1
  TRAEs (all Grades): Dyspepsia, % of patients: (4.2%)
  TRAEs (all Grades): Dyspepsia, patients: 1
  TRAEs (all Grades): Eructation, patients: 0
  TRAEs (all Grades): Fatigue, % of patients: (12.5%)
  TRAEs (all Grades): Fatigue, patients: 3
  TRAEs (all Grades): Headache, % of patients: (8.3%)
  TRAEs (all Grades): Headache, patients: 2
  TRAEs (all Grades): Lipase increased, % of patients: (4.2%)
  TRAEs (all Grades): Lipase increased, patients: 1
  TRAEs (all Grades): Myalgia, % of patients: (4.2%)
  TRAEs (all Grades): Myalgia, patients: 1
  TRAEs (all Grades): Nausea, % of patients: (8.3%)
  TRAEs (all Grades): Nausea, patients: 2
  TRAEs (all Grades): Peripheral sensory neuropathy, % of patients: (4.2%)
  TRAEs (all Grades): Peripheral sensory neuropathy, patients: 1
  TRAEs (all Grades): Phlebitis, % of patients: (4.2%)
  TRAEs (all Grades): Phlebitis, patients: 1
  TRAEs (all Grades): Pneumonitis, % of patients: (4.2%)
  TRAEs (all Grades): Pneumonitis, patients: 1
  TRAEs (all Grades): Pruritus, % of patients: (8.3%)
  TRAEs (all Grades): Pruritus, patients: 2
  TRAEs (all Grades): Rash maculo-papular, % of patients: (8.3%)
  TRAEs (all Grades): Rash maculo-papular, patients: 2
  TRAEs (all Grades): Tumor pain, patients: 0
[1]; at 60 mg, lipase increase and facial nerve disorder
  Dose Limiting Toxicity (DLTs) observed: Two
[1]; patients
  Most common treatment-related adverse events (TRAEs) (>10%): fatigue
[1]; patients, IV once weekly in a 21-day-cycle
  tolerability: well tolerated
Spleen cells
  proportion of 9 types of immune cells in the spleen: no effect
